Experimental findings from patent US20040029254A1, “Method of screening anti-bacterial agents for effectiveness in treating persistant intracellular infections” (University of Washington, priority 2002, published 2004) are described below.

Values after ≈ are worked out from the molar mass of the structure shown. Values joined by “and” are separate entries in the source; they are usually repeats but may differ in a detail not shown here. Equal entries are not always repeated. Where two headings read alike, the source gives them in different places. Bounds are passed on as bounds.

Type in all cases: cell-based
Assay [1] concerns C. pneumoniae TW-183, CWL-029. The assay is described as follows: Anti-bacterial susceptibilities of reference strains.
Assay [2] relates to C. trachomatis B,D,E,F,G,H,I,Ia,J,K (human genital serovars). The assay is described as above. The note with it: Chlamydia trachomatis; McCoy cells; read-out: MIC (microtiter).
For another assay, the system named is C. psittaci 6BC, GPIC. The assay is described as follows: microbe, parasite or virus in culture. The note with it: Chlamydia psittaci, read-out: MIC (microtiter).
For assay [3], the system named is C. trachomatis serovar D strain. The assay is described as follows: Comparison of MIC, MCC, MCC3 and MCC3/MIC ratio in McCoy cells. Particulars: for MIC: Chlamydia trachomatis.
For assay [4], the system named is Chlamydia trachomatis serovar D. Put plainly: microbe, parasite or virus in culture.
The subject of assay [5] is C. trachomatis MoPn (mouse pneumonitis strain). The assay is described as follows: Anti-bacterial susceptibilities of reference strains. The note with it: Chlamydia trachomatis; McCoy cells; read-out: MIC (microtiter).
For assay [6], the system named is Chlamydia trachomatis clinical isolates. The assay is described as follows: Anti-bacterial susceptibilities of clinical isolates. The note with it: McCoy cells.
The subject of assay [7] is clinical isolates of C. trachomatis. The assay is described as follows: microbe, parasite or virus in culture. Particulars: for MIC: Chlamydia trachomatis.
The test system of assay [8] is C. trachomatis L2 (LGV serovar). The assay is described as follows: Anti-bacterial susceptibilities of reference strains. Particulars: Chlamydia trachomatis; McCoy cells; read-out: MIC (microtiter).
[9] abbreviates: CDC strains sensitive controls (n = 2).
[10] abbreviates: CDC strains treatment failures (n = 2).
Setting [11] is: Recurrent same serovar isolates (n = 6).
Where [12] appears, read: Treatment failure isolates (n = 6).

Regarding `CC1COc2c(N3CCN(C)CC3)c(F)cc3c(=O)c(C(=O)O)cn1c23` (stereo not shown) [Ofloxacin, ofloxacin], the “MCC1 (shell vial)” value in assay [1] is >8 µg/mL. The “MCC3 (shell vial)” value in assay [1], in [6] (setting [9]), in assay [6] (setting [10]), in [6] (setting [11]), in [6] (Single isolates (n = 30)) and in assay [6] (setting [12]) was >128 µg/mL in each case. Also, the “MCC (microtiter)” value in assay [1] was 1.0 µg/mL; in assay [6] (setting [9]), 1 to 2 µg/mL; in assay [6] (setting [10]) it was 1 to 2 µg/mL; in assay [6] (setting [11]), 1 to 2 µg/mL; in [6] (Single isolates (n = 30)), 1 to 2 µg/mL; in [6] (setting [12]), 1 to 2 µg/mL. Also, the MIC in assay [1] (Chlamydia pneumoniae, HEp-2 cells, read-out: MIC (microtiter)) was 0.5 µg/mL (≈ 1.38 µM); in assay [2], 0.5 µg/mL (≈ 1.38 µM); in the assay with C. psittaci 6BC, GPIC, 0.5 µg/mL (≈ 1.38 µM); in [3] (McCoy cells, read-out: MIC), 1 µg/mL; in [5] it was 0.5 µg/mL (≈ 1.38 µM); in assay [6] (Chlamydia trachomatis, Recurrent same serovar isolates (n = 6), read-out: MIC (microtiter)), 0.5 to 1 µg/mL (≈ 1.38 to 2.77 µM). Also, the values for the MIC in [7] and in assay [8] were 1 to 2 µg/mL (≈ 2.77 to 5.53 µM) and 0.5 µg/mL (≈ 1.38 µM), respectively. Besides, the MCC3 in [3] is 128 µg/mL. Further, the MCC3/MIC in assay [3] and in [7] was 128 each time. The MCC is 16 µg/mL in assay [3] (McCoy cells); >8 µg/mL and 4 µg/mL and 8 µg/mL in assay [4]. Also, the “MCC (shell vial)” value in assay [6] (setting [9]), in assay [6] (setting [10]), in assay [6] (setting [11]), in assay [6] (Single isolates (n = 30)) and in [6] (setting [12]) was >8 µg/mL each time. The “MIC (microtiter)” value in assay [6] (setting [9]) was in the range of 0.5 to 1.0 µg/mL; in assay [6] (CDC strains treatment failures (n = 2), multi-drug resistant at CDC), 0.5 to 1.0 µg/mL; in assay [6] (Single isolates (n = 30)), 0.5 to 1.0 µg/mL; in [6] (setting [12]), 0.5 to 1.0 µg/mL.
Regarding `CO[C@H]1/C=C/O[C@@]2(C)Oc3c(C)c(O)c4c(=O)c(c5oc6cc(N7CCN(CC(C)C)CC7)cc(O)c6nc-5c4c3C2=O)NC(=O)/C(C)=C\C=C\[C@H](C)[C@H](O)[C@@H](C)[C@@H](O)[C@@H](C)[C@H](OC(C)=O)[C@@H]1C` [Rifalazil, rifalazil], the MCC3/MIC in [3] was 16. For the same compound, the MIC in assay [3] (McCoy cells, read-out: MIC) was 0.00025 µg/mL. In [3] (McCoy cells), the MCC worked out at 0.002 µg/mL and the MCC3 came out at 0.004 µg/mL. The “anti-chlamydial activity in words” value in [3] (McCoy cells, compared with other drugs) is “highly active”. For the same compound, in assay [7], the MCC3/MIC was found to be 16, the “anti-chlamydial activity in words” value was “highly active” and the MIC was in the range of 0.00025 to 0.005 µg/mL (≈ 0.000266 to 0.00531 µM).
`CO[C@H]1/C=C/O[C@@]2(C)Oc3c(C)c(O)c4c(O)c(c(/C=N/N5CCN(C)CC5)c(O)c4c3C2=O)NC(=O)/C(C)=C\C=C\[C@H](C)[C@H](O)[C@@H](C)[C@@H](O)[C@@H](C)[C@H](OC(C)=O)[C@@H]1C` [Rifampin, rifampin]: the MIC in [3] (McCoy cells, read-out: MIC) was 0.016 µg/mL. For the same compound, in assay [3] (McCoy cells), the MCC came out at 0.5 µg/mL, the MCC3 was 4 µg/mL and the MCC3/MIC worked out at 250.
Consider `CN(C)[C@@H]1C(O)=C(C(N)=O)C(=O)[C@@]2(O)C(O)=C3C(=O)c4c(O)cccc4[C@@](C)(O)[C@H]3C[C@@H]12` [Tetracycline, tetracycline], for which, in [3], the MCC was 16 µg/mL, the MCC3 amounted to 128 µg/mL, the MCC3/MIC is 128 and the MIC stood at 0.25 µg/mL. Further, in assay [4] (Chlamydia trachomatis), the MIC worked out at 0.25 µg/mL (≈ 0.563 µM).
